{
  "source": "patent US7008927B2",
  "about": "“Pralmorelin-containing nasal drop preparations” (Kaken Pharmaceutical Co., Ltd., priority 2000, dated 2006)",
  "key": {"[1]": {"assay": "In vivo absorption after intranasal administration to rats (plasma concentration, two-antibody competition method)", "details": "Crj:CD (SD), rat; for Tmax: male rats; for AUC / Cmax / bioavailability: male", "experimental": "With an isotonic solution (in distilled water) of 5 w/v % D-mannitol or physiological saline used as a solvent, a solution of 0.1 w/v % pralmorelin dihydrochloride was prepared and administered to male rats (7-week old, Crj:CD (SD) strain, N=3) in an amount of 50 μg/kg.\nWith the rats fixed supine under an unanesthetized condition, the pralmorelin solution was administered into one nostril of each rat in an amount of 50 μg/kg with a micropipette. The rats were not anesthetized for two reasons: actual drug administration is effected without anesthesia; the effects anesthetization would have on drug absorption have not been elucidated.\nThe concentration of an unchanged substance in plasma was measured in accordance with the two-antibody competition method of Kitagawa et al. summarized below [J. Assoc. Off. Anal. Chem., Vol. 68, No. 4, pp. 661–664 (1985) and J. Immunological Methods, 72, pp. 109–118 (1984)].\nAnti-rabbit IgG goat IgG (Jackson Immuno Research) as the second antibody was adsorbed on an ELISA 96-well microplate (GREINER). Then, anti-pralmorelin dihydrochloride rabbit serum was adsorbed on the same microplate; the serum was the first antibody and had been obtained by subcutaneous injection of rabbits with an immunogen having pralmorelin dihydrochloride bound to bovine serum albumin (Sigma) by means of water-soluble carbodiimide (Nakarai Tesk).\nPralmorelin dihydrochloride contained in a sample was allowed to compete for pralmorelin labeled β-galactosidase that had been crosslinked with crosslinker N-(m-maleimidebenzoyloxy)succinimide (Nakaral Tesk); then, the β-galactosidase bound to the first antibody was reacted with 4-methylumbelliferyl-β-D-galactopyranoside; thereafter, the enzymatic activity of the β-galactosidase bound to the first antibody was measured at an excitation wavelength of 370 nm and a fluorescence wavelength of 460 nm.\nFrom the measured values for the enzymatic activity of the β-galactosidase, the maximum plasma drug concentration (Cmax) of pralmorelin dihydrochloride, the area under the plasma drug concentration vs time curve (AUC) and the bioavailability (the ratio of AUC obtained by intranasal administration to AUC obtained by intravenous administration) were obtained.\nTwo kinds of preparation for intranasal administration, one consisting of pralmorelin dihydrochloride and distilled water and the other further containing D-mannitol at varying concentrations, were evaluated for their effects on in vivo absorption of pralmorelin dihydrochloride. With four kinds of solvent, distilled water, 2.5 w/v % D-mannitol solution (osmolarity ratio, 0.5), 5 w/v % D-mannitol solution (osmolarity ratio, 1), 10 w/v % D-mannitol solution (osmolarity ratio, 2), solutions of 0.4 w/v % pralmorelin dihydrochloride were prepared and administered in an amount of 50 μg/kg to male rats as in Example 1.\nWith an aqueous solution of 0.005 w/v % benzalkonium chloride used as a base, pralmorelin preparations for intranasal administration were made at three concentrations, 0.1 w/v %, 0.3 w/v % and 1.0 w/v %, of pralmorelin dihydrochloride. Each preparation was dripped into the right nostril of 5-week old male Crj:CD (SD) rats (N=3). The dose of administration was 0.1 mg/kg, 0.3 mg/kg and 1.0 mg/kg for the respective preparations, which were all administered in a volume of 0.1 ml/kg."}, "[2]": {"assay": "Saturated solubility in physiological saline", "assay_type": "physicochemical", "details": "25° C., as dihydrochloride", "experimental": "To be more specific, pralmorelin has low saturated solubility in physiological saline (0.15 w/v % at 25° C. when it is dihydrochloride) and at higher concentrations, pralmorelin becomes insoluble with the lapse of time and a problem occurs in terms of storage stability, thus making it difficult to formulate pralmorelin pharmaceutically using physiological saline. Even at concentrations lower than its saturated solubility, pralmorelin has low in vivo absorption and needs frequent administration."}, "[3]": {"details": "inhaled or intranasal, 50 ug/kg, intranasal 50 μg/kg, 0.1 w/v % solution in 5 w/v % D-mannitol"}, "[4]": {"details": "inhaled or intranasal, 50 ug/kg, intranasal 50 μg/kg, 0.1 w/v % solution in physiological saline"}, "[5]": {"details": "inhaled or intranasal, 50 ug/kg, intranasal 50 μg/kg, 0.4 w/v % solution in 2.5 w/v % D-mannitol (osmolarity ratio 0.5)"}, "[6]": {"details": "inhaled or intranasal, 50 ug/kg, intranasal 50 μg/kg, 0.4 w/v % solution in 5 w/v % D-mannitol (osmolarity ratio 1)"}, "[7]": {"details": "inhaled or intranasal, 50 ug/kg, intranasal 50 μg/kg, 0.4 w/v % solution in 10 w/v % D-mannitol (osmolarity ratio 2)"}, "[8]": {"details": "inhaled or intranasal, 50 ug/kg, intranasal 50 μg/kg, 0.4 w/v % solution in distilled water"}, "[9]": {"details": "inhaled or intranasal, 0.1 mg/kg, intranasal 0.1 mg/kg, 0.1 w/v % in aqueous 0.005 w/v % benzalkonium chloride, 0.1 ml/kg"}, "[10]": {"details": "inhaled or intranasal, 0.3 mg/kg, intranasal 0.3 mg/kg, 0.3 w/v % in aqueous 0.005 w/v % benzalkonium chloride, 0.1 ml/kg"}, "[11]": {"details": "inhaled or intranasal, 1 mg/kg, intranasal 1.0 mg/kg, 1.0 w/v % in aqueous 0.005 w/v % benzalkonium chloride, 0.1 ml/kg"}},
  "note": "Where a SMILES comes first, the peptide text is derived from it. [ ]: non-standard residue; d: D form. d2Nal = N[C@H](Cc1ccc2ccccc2c1)C(=O)O",
  "data": [
    {"molecule": "C[C@H](NC(=O)[C@@H](Cc1ccc2ccccc2c1)NC(=O)[C@@H](C)N)C(=O)N[C@@H](Cc1c[nH]c2ccccc12)C(=O)N[C@H](Cc1ccccc1)C(=O)N[C@@H](CCCCN)C(N)=O.Cl.Cl", "note": "[pralmorelin dihydrochloride, D-alanyl-3-(naphthalen-2-yl)-D-alanyl-L-alanyl-L-tryptophyl-D-phenylalanyl-L-lysinamide dihydrochloride] (H-[dA][d2Nal]AW[dF]K-NH2)", "values": [
      {"measurement": "Tmax", "setting": "[1]; inhaled or intranasal, intranasal 0.1 mg/kg, 0.1 w/v % in aqueous 0.005 w/v % benzalkonium chloride, 0.1 ml/kg", "result": 10.2, "unit": "min"},
      {"measurement": "Tmax", "setting": "[1]; inhaled or intranasal, intranasal 0.3 mg/kg, 0.3 w/v % in aqueous 0.005 w/v % benzalkonium chloride, 0.1 ml/kg", "result": 10.2, "unit": "min"},
      {"measurement": "Tmax", "setting": "[1]; inhaled or intranasal, intranasal 1.0 mg/kg, 1.0 w/v % in aqueous 0.005 w/v % benzalkonium chloride, 0.1 ml/kg", "result": 10.2, "unit": "min"},
      {"measurement": "AUC", "setting": "[1]; [3]", "result": 2.71, "unit": "ng·h/mL"},
      {"measurement": "Cmax", "setting": "[1]; [3]", "result": 2.37, "unit": "ng/mL"},
      {"measurement": "AUC", "setting": "[1]; [4]", "result": 1.98, "unit": "ng·h/mL"},
      {"measurement": "Cmax", "setting": "[1]; [4]", "result": 0.7, "unit": "ng/mL"},
      {"measurement": "Cmax", "setting": "[1]; [5]", "result": 55.8, "unit": "ng/mL"},
      {"measurement": "bioavailability", "setting": "[1]; [5]", "result": 22.1, "unit": "%"},
      {"measurement": "Cmax", "setting": "[1]; [6]", "result": 49.2, "unit": "ng/mL"},
      {"measurement": "bioavailability", "setting": "[1]; [6]", "result": 19, "unit": "%"},
      {"measurement": "Cmax", "setting": "[1]; [7]", "result": 21.7, "unit": "ng/mL"},
      {"measurement": "bioavailability", "setting": "[1]; [7]", "result": 9, "unit": "%"},
      {"measurement": "Cmax", "setting": "[1]; [8]", "result": 60.7, "unit": "ng/mL"},
      {"measurement": "bioavailability", "setting": "[1]; [8]", "result": 26.2, "unit": "%"},
      {"measurement": "AUC", "setting": "[1]; [9]", "result": 14.5, "unit": "ng·h/mL"},
      {"measurement": "Cmax", "setting": "[1]; [9]", "result": 18, "unit": "ng/mL"},
      {"measurement": "AUC", "setting": "[1]; [10]", "result": 48.1, "unit": "ng·h/mL"},
      {"measurement": "Cmax", "setting": "[1]; [10]", "result": 72.8, "unit": "ng/mL"},
      {"measurement": "AUC", "setting": "[1]; [11]", "result": 250, "unit": "ng·h/mL"},
      {"measurement": "Cmax", "setting": "[1]; [11]", "result": 502, "unit": "ng/mL"},
      {"measurement": "bioavailability", "setting": "[1]; other: intranasal, 50 ug/kg, intranasal 50 μg/kg, 0.1 w/v % solution in 5 w/v % D-mannitol, AUC intranasal / AUC intravenous", "result": 4.22, "unit": "%"},
      {"measurement": "bioavailability", "setting": "[1]; other: intranasal, 50 ug/kg, intranasal 50 μg/kg, 0.1 w/v % solution in physiological saline, AUC intranasal / AUC intravenous", "result": 3.08, "unit": "%"},
      {"measurement": "saturated solubility in physiological saline", "setting": "[2]", "result": 0.15, "unit": "w/v %"}
    ]}
  ]
}
